Legend:
[1] = standard laboratory test which indicates analgesic activity
Description: However, the preferred use of the compounds of this invention is as anti-psychotic agents.

[2] = biological target: T1, ^3 H-spiroperidol binding (Mus musculus, UniProt P61168); experiment: In vivo spiroperidol binding assay
T1 construct: from tissue; host or cells: brain of ICR mice: striata, septum, most of the olfactory tubercles, small part of ventral cortex (in vivo labelling)
Protocol: D. In vivo spiroperidol Binding Assay
ICR strain mice, weighing about 20 gm, are given the test drugs or vehicle, i.p. or s.c., in 0.10 ml. Drug solutions are in saline, 0.1M citric acid, or 33% propylene glycol. After 1 hour, mice are given 66 micro-Curies (μCi)/kg of ^3 H-spiroperidol (specific activity […]) i.v. in 0.10 ml of saline. Four to 6 mice are given each test drug, and 4 of those which are successfully i.v. injected with the label are used for the rest of the experiment. At 3 hours (2 hours after the ^3 H-spiroperidol injection), the mice are sacrificed and the brains rapidly dissected. A section of brain tissue including the striata, septum, most of the olfactory tuberoles, and a small associated portion of the ventral edge of the cortex, is removed to dry ice. The tissues are weighed (usually 60-70 mg) and then dissolved in 1.0 ml of Protosol (New England Nuclear) overnight at about 40° C. The solutions are then neutralized with 80 μl of 6N HCl or 200 μl of 2.4N HCl, 15 ml of ACS counting solution (Amersham) is added, and the samples are counted by liquid scintillation spectroscopy. The amount of bound ^3 H-spiroperiodol, in cpm/mg tissue, is calculated for each test group and compared to the control group using the two-tailed Student's t test.
Of these tests, the in vivo spiroperidol binding assay is the most important indicator of antipsychotic activity. […]

T1 sequence (P61168 whole entry): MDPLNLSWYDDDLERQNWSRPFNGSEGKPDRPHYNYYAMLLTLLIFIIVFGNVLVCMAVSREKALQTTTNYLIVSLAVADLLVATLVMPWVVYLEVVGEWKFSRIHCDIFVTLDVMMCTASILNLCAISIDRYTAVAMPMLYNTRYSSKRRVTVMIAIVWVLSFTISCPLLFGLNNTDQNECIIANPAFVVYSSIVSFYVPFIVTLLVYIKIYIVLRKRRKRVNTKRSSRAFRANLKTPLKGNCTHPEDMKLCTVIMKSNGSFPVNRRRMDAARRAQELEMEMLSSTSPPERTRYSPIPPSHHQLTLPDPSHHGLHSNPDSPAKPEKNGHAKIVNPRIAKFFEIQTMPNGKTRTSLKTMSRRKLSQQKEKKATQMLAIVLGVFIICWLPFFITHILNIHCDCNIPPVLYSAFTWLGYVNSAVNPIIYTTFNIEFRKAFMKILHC

SMILES	analgesic activity (in words) [1]	effectiveness in the in vivo spiroperidol binding assay (in words) [2]
Cc1nnc(C(C)(O)CCN(C)CCc2ccccc2)n1-c1ccccc1 (stereo not drawn) [Example 2]	effective	–
Cc1nnc(/C=C/CN2CCN(c3ccccc3)CC2)n1-c1ccccc1 [Example 3, (E)-1-[3-(5-methyl-4-phenyl-4H-1,2,4-triazol-3-yl)-2-propenyl]-4-phenyl-piperazine]	–	most effective
CN(CCCc1nncn1-c1ccccc1)CCc1ccccc1 [N-methyl-4-phenyl-N-(2-phenylethyl)-4H-1,2,4-triazole-3-propanamine]	–	most effective
